# Measurements reported in patent US10081602B2, “Opioid agonists and uses thereof” (Nektar Therapeutics, priority 2013, dated 2018).
# Several values for one entry are separate records, joined by “and”; a condition that tells them apart may be missing. Equal values may be shown once.
# Legend:
# [1] = tested on: acetic acid-induced writhing (visceral pain) in mice; test: Acetic acid writhing (AAW) analgesic assay; type: in vivo
# Procedure: An analgesic assay was used to determine whether a given compound can reduce and/or prevent visceral pain in mice. The assay utilizes Swiss Albino or CD-1 male mice (5-10 mice per group), each mouse being approximately 0.015-0.030 kg on the study day. Mice were treated according to standard protocols.
# The animal was given an intraperitoneal (IP) injection of an irritant (acetic acid) that induces “writhing” which may include: contractions of the abdomen, twisting and turning of the trunk, arching of the back and the extension of the hindlimbs. Mice are given a single IP injection (0.1 mL/10 g bodyweight) of a 0.5% acetic acid solution. After the injection the animals were returned to their observation enclosure and their behavior was observed. Contractions were counted between 0 and 20 minutes after the injection. The animals were used once. In certain instances, the test articles were administered at multiple doses to determine a dose response curve.
# Table 4 provides the results for certain compounds of the present invention that were administered subcutaneously. Table 5 provides the results for certain compounds of the present invention that were administered orally.
# [2] = tested on: locomotor activity of mice; test: Locomotor activity; type: in vivo; conditions: oral, 30 min predose, 20 min observation
# Procedure: Male Swiss Albino mice were treated orally with vehicle (0.5% HPMC+0.1% Tween80), ketazocine, Compound 12 (0.3, 3 and 30 mg/kg) or Compound 20 (0.3, 3 and 30 mg/kg) thirty minutes prior to placement in the locomotor activity chamber. Total distance travelled was measured over the twenty minute observation time following placement in the locomotor activity chamber. Data are normalized relative to percent distance travelled in the vehicle group. The efficacy of Compound 12 (reported as percent distance travelled in comparison to vehicle) was 88.85%, 83.74% and 0.08% at 0.3, 3 and 30 mg/kg dosages, respectively, while the locomotor activity of Compound 20 (reported as percent distance travelled in comparison to vehicle) was 100%, 88% and 0.03% at 0.3, 3 and 30 mg/kg dosages, respectively.
# [3] = molecular target: human mu (MOR) opioid receptor (Homo sapiens (Human), UniProt P35372); test: Radioligand competition binding assay, mu opioid receptor; conditions: 10 uM, [3H]Naloxone; read-out: Mu receptor % inhibition at single concentration
# Procedure: The binding affinities of certain compounds of the present invention were evaluated using radioligand binding assays in membranes prepared from CHO-K1 cells expressing recombinant human kappa (KOR) or mu (MOR) opioid receptors.
# Competition binding experiments were conducted by incubating membrane protein to equilibrium in triplicate in the presence of a fixed concentration of radioligand and increasing concentrations of test compound for evaluation of binding to KOR or single concentration (10 μM) of test compound for evaluation of binding to MOR in 101 μL final volume. The radioligands used were specific for each receptor type, and the assay conditions are described in Table 1. Following incubations, the membranes were rapidly filtered through GF/B filter plate (presoaked with 0.5% polyethyleneimine), washed five times with cold 50 mM Tris-HCl, pH 7.5, and the bound radioactivity was then measured by liquid scintillation counting. Non-specific binding was measured in the presence of excess ligand; this value was subtracted from the total binding to yield the specific binding at each test concentration.
# Ki (affinity of test compound) was obtained using the Cheng Prusoff correction using experimental Kd (affinity of radioligand) values that were previously determined under these assay conditions. For MOR binding, compounds were tested at one concentration, 10 μM, to evaluate its ability to inhibit specific radioligand binding. The values are expressed as percent inhibition of specific binding and greater than 50% inhibition of binding was considered to be significant.
# With respect to determining MOR binding, an approach similar to one used for KOR binding was used.
smiles,measurement,setting,value
"COCCOCCOCCOCCOCCNc1ccc(Nc2ccc3c(c2)[C@]2(C)CCN(CC4CC4)[C@H](C3=O)[C@@H]2C)cc1 [Example 12, (2S,6R,11R)-8-((4-(2,5,8,11,14-pentaoxahexadecan-16-ylamino)phenyl)amino)-3-(cyclopropylmethyl)-6,11-dimethyl-3,4,5,6-tetrahydro-2,6-methanobenzo[d]azocin-1(2H)-one]",AAW % Efficacy,"[1]; oral, 0.1 mg/kg",22.5%
same,AAW % Efficacy,"[1]; oral, 1 mg/kg",56.9%
same,AAW % Efficacy,"[1]; oral, 10 mg/kg",97.2% and 90.2%
same,AAW % Efficacy,"[1]; subcutaneous, 30 mg/kg",100.0%
same,percent distance travelled in comparison to vehicle,[2]; 0.3 mg/kg,88.85%
same,percent distance travelled in comparison to vehicle,[2]; 3 mg/kg,83.74%
same,percent distance travelled in comparison to vehicle,[2]; 30 mg/kg,0.08%
"COCCOCCOCCOCCOCCOc1c(O)ccc2c1[C@]1(C)CCN(CC3CC3)[C@H](C2=O)[C@@H]1C [Example 19, (2S,6R,11R)-7-(2,5,8,11,14-pentaoxahexadecan-16-yloxy)-3-(cyclopropylmethyl)-8-hydroxy-6,11-dimethyl-3,4,5,6-tetrahydro-2,6-methanobenzo[d]azocin-1(2H)-one]",AAW % Efficacy,"[1]; subcutaneous, 10 mg/kg",31.6%
"COCCOCCOCCOCCOCCOc1ccc(Nc2ccc3c(c2)[C@]2(C)CCN(CC4CC4)[C@H](C3=O)[C@@H]2C)cc1 [Example 9, (2S,6R,11R)-8-((4-(2,5,8,11,14-pentaoxahexadecan-16-yloxy)phenyl)amino)-3-(cyclopropylmethyl)-6,11-dimethyl-3,4,5,6-tetrahydro-2,6-methanobenzo[d]azocin-1(2H)-one]",AAW % Efficacy,"[1]; oral, 10 mg/kg",38.5%
same,AAW % Efficacy,"[1]; subcutaneous, 0.3 mg/kg",13.3%
same,AAW % Efficacy,"[1]; subcutaneous, 3 mg/kg",67.8% and 61.4%
same,AAW % Efficacy,"[1]; subcutaneous, 10 mg/kg",95.4%
same,AAW % Efficacy,"[1]; subcutaneous, 30 mg/kg",99.2%
"COCCNC(=O)c1ccc2c(c1)[C@]1(C)CCN(CC3CC3)[C@H](C2=O)[C@@H]1C [Example 16, (2S,6R,11R)-3-(cyclopropylmethyl)-N-(2-methoxyethyl)-6,11-dimethyl-1-oxo-1,2,3,4,5,6-hexahydro-2,6-methanobenzo[d]azocine-8-carboxamide]",AAW % Efficacy,"[1]; subcutaneous, 10 mg/kg",26.4%
"COCCOCCOCCOCCOCCOc1ccccc1Nc1ccc2c(c1)[C@]1(C)CCN(CC3CC3)[C@H](C2=O)[C@@H]1C [Example 7, (2S,6R,11R)-8-((2-(2,5,8,11,14-pentaoxahexadecan-16-yloxy)phenyl)amino)-3-(cyclopropylmethyl)-6,11-dimethyl-3,4,5,6-tetrahydro-2,6-methanobenzo[d]azocin-1(2H)-one]",AAW % Efficacy,"[1]; subcutaneous, 3 mg/kg",38.8%
same,AAW % Efficacy,"[1]; subcutaneous, 30 mg/kg",84.8%
"C[C@H]1[C@H]2C(=O)c3ccc(Nc4ccc(NCCOCCOCCOCCOCCOC(F)(F)F)cc4)cc3[C@]1(C)CCN2CC1CC1 [Example 20, (2S,6R,11R)-3-(cyclopropylmethyl)-6,11-dimethyl-8-((4-((1,1,1-trifluoro-2,5,8,11,14-pentaoxahexadecan-16-yl)amino)phenyl)amino)-3,4,5,6-tetrahydro-2,6-methanobenzo[d]azocin-1(2H)-One]",AAW % Efficacy,"[1]; oral, 0.3 mg/kg",39.1%
same,AAW % Efficacy,"[1]; oral, 3 mg/kg",79.5%
same,AAW % Efficacy,"[1]; oral, 30 mg/kg",100.0%
same,AAW % Efficacy,"[1]; subcutaneous, 10 mg/kg",88.1%
same,percent distance travelled in comparison to vehicle,[2]; 0.3 mg/kg,100%
same,percent distance travelled in comparison to vehicle,[2]; 3 mg/kg,88%
same,percent distance travelled in comparison to vehicle,[2]; 30 mg/kg,0.03%
"COCCOCC(=O)NCc1ccc2c(c1)[C@]1(C)CCN(CC3CC3)C(C2=O)[C@@H]1C [Example 17, N,N-(((2S,6R,11R)-3-(cyclopropylmethyl)-6,11-dimethyl-1-oxo-1,2,3,4,5,6-hexahydro-2,6-methanobenzo[d]azocin-8-yl)methyl)-2-(2-methoxyethoxy)acetamide]",AAW % Efficacy,"[1]; subcutaneous, 10 mg/kg",23.3%
"COCCOCCOCCOCCOCCNc1cccc(Nc2ccc3c(c2)[C@]2(C)CCN(CC4CC4)[C@H](C3=O)[C@@H]2C)c1 [Example 11, (2S,6R,11R)-8-((3-(2,5,8,11,14-pentaoxahexadecan-16-ylamino)phenyl)amino)-3-(cyclopropylmethyl)-6,11-dimethyl-3,4,5,6-tetrahydro-2,6-methanobenzo[d]azocin-1(2H)-One]",AAW % Efficacy,"[1]; oral, 10 mg/kg",31.2%
same,AAW % Efficacy,"[1]; subcutaneous, 0.3 mg/kg",21.1%
same,AAW % Efficacy,"[1]; subcutaneous, 3 mg/kg",62.2% and 64.3%
same,AAW % Efficacy,"[1]; subcutaneous, 10 mg/kg",99.1%
same,AAW % Efficacy,"[1]; subcutaneous, 30 mg/kg",100.0%
"COCCOCCOCCOCCOCCNc1nc2cc3c(cc2s1)C(=O)[C@@H]1[C@H](C)[C@@]3(C)CCN1CC1CC1 [Example 13, (6S,10R,12R)-2-(2,5,8,11,14-pentaoxahexadecan-16-ylamino)-7-(cyclopropylmethyl)-10,12-dimethyl-7,8,9,10-tetrahydro-6,10-methanothiazolo[4′,5′:4,5]benzo[1,2-d]azocin-5(6H)-one]",AAW % Efficacy,"[1]; subcutaneous, 10 mg/kg",40.2%
"COCCOCCOCCOCCOCCNc1ccc2c(c1)[C@]1(C)CCN(CC3CC3)[C@H](C2=O)[C@@H]1C [Example 2, (2S,6R,11R)-3-(Cyclopropylmethyl)-6,11-dimethyl-8-(2,5,8,11,14-pentaoxahexadecan-16-ylamino)-3,4,5,6-tetrahydro-2,6-methano-3-benzazocin-1(2H)-One]",inhibition at 10 µM,[3],85.5%
"COCCOCCOCCOCCOCCOc1cccc(Nc2ccc3c(c2)[C@]2(C)CCN(CC4CC4)[C@H](C3=O)[C@@H]2C)c1 [Example 8, (2S,6R,11R)-8-((3-(2,5,8,11,14-pentaoxahexadecan-16-yloxy)phenyl)amino)-3-(cyclopropylmethyl)-6,11-dimethyl-3,4,5,6-tetrahydro-2,6-methanobenzo[d]azocin-1(2H)-one]",inhibition in vivo at 30 mg/kg,"[1]; Mus musculus, sc, subcutaneous, 30 mg/kg, read-out: AAW % Efficacy",100%
same,AAW % Efficacy,"[1]; subcutaneous, 3 mg/kg",38.0%
"COCCOCCOCCOCCOCCOCCOCCOc1ccc2c(c1)[C@]1(C)CCN(CC3CC3)[C@H](C2=O)[C@@H]1C [Example 6, (2S,6R,11R)-3-(Cyclopropylmethyl)-8-(2,5,8,11,14,17,20-heptaoxadocosan-22-yloxy)-6,11-dimethyl-3,4,5,6-tetrahydro-2,6-methano-3-benzazocin-1(2H)-One]",inhibition at 10 µM,[3],48.6%
"COCCOCCN1CC[C@@]2(C)c3cc(O)ccc3C(=O)[C@@H]1[C@@H]2C [Example 14, (2S,6R,11R)-8-hydroxy-3-(2-(2-methoxyethoxy)ethyl)-6,11-dimethyl-3,4,5,6-tetrahydro-2,6-methanobenzo[d]azocin-1(2H)-One]",AAW % Efficacy,"[1]; subcutaneous, 10 mg/kg",13.2%
"COCCOCCOCCOCCOCCNc1ccc(Nc2ccc3c(c2)[C@]2(C)CCN(CC4CC4)[C@H](C3=O)[C@@H]2C)cc1 [Example 10, (2S,6R,11R)-8-((4-(2,5,8,11,14-pentaoxahexadecan-16-ylamino)phenyl)amino)-3 (cyclopropylmethyl)-6,11-dimethyl-3,4,5,6-tetrahydro-2,6-methanobenzo[d]azocin-1(2H)-one]",AAW % Efficacy,"[1]; subcutaneous, 3 mg/kg",34.0%
same,AAW % Efficacy,"[1]; subcutaneous, 30 mg/kg",100.0%
"COCCOCCNCc1ccc2c(c1)[C@]1(C)CCN(CC3CC3)[C@H](C2=O)[C@@H]1C [Example 18, (2S,6R,11R)-3-(cyclopropylmethyl)-8-(((2-(2-methoxyethoxy)ethyl)amino)methyl)-6,11-dimethyl-3,4,5,6-tetrahydro-2,6-methanobenzo[d]azocin-1(2H)-one]",AAW % Efficacy,"[1]; subcutaneous, 10 mg/kg",31.9%
"COCCOCC(=O)Nc1ccc2c(c1)[C@]1(C)CCN(CC3CC3)[C@H](C2=O)[C@@H]1C [Example 15, N-((2S,6R,11R)-3-(cyclopropylmethyl)-6,11-dimethyl-1-oxo-1,2,3,4,5,6-hexahydro-2,6-methanobenzo[d]azocin-8-yl)-2-(2-methoxyethoxy)acetamide]",AAW % Efficacy,"[1]; subcutaneous, 10 mg/kg",100.0%
"C[C@H]1[C@H]2C(=O)c3cc4sc(N)nc4cc3[C@]1(C)CCN2CC1CC1 [Step 1 of 13, (6S,10R,12R)-2-amino-7-(cyclopropylmethyl)-10,12-dimethyl-7,8,9,10-tetrahydro-6,10-methanothiazolo[4′,5′:4,5]benzo[1,2-d]azocin-5(6H)-One]",AAW % Efficacy,"[1]; subcutaneous, 10 mg/kg",100%
